Reference: patent US20100111867A1, “CARBORANE-PHOSPHONIUM COMPOUNDS AND THEIR USE IN BORON NEUTRON CAPTURE THERAPY AND IMAGING” (THE UNIVERSITY OF SYDNEY, priority 2007, published 2010)

Experiments:
[1] = system: SF268 (human glioblastoma) cell line; assay: Preliminary in vitro cytotoxicity screening against SF268 cell line; assay type: cell-based
Description: In contrast to the 1,12-carborane derivative 4, the 1,2- and 1,7-isomers undergo a deboronation reaction in polar solvents to afford the corresponding zwitterionic nido-carborane phosphonium species.

[2] = Deboronation of closo-carborane phosphonium salts in polar solvents; assay type: physicochemical; conditions: polar solvents such as DMSO
Description: The deboronation reaction was not observed for 4, which contains 1,12-carborane. The inventors hypothesise that 4 is highly resistant to the deboronation reaction because no boron atoms within the cluster are bonded to two adjacent and electronegative carbon atoms. The facile deboronation of closo-1,2-carborane under mild, non-basic conditions is known with alcohols, water and acids (E. Svantesson, J. Pettersson, Å. Olin, K. Markides, S. Sjöberg, Acta Chem. Scand., 1999, 53, 731. V. A. Ol'shevskaya, R. Ayuob, Z. G. Brechko, P. V. Petrovskii, E. G. Kononova, G. L. Levit, V. P. Krasnov, V. N. Charushin, O. N. Chupakhin, V. N. Kalinin, J. Organomet. Chem., 2005, 690, 2761. Y.-J. Lee, J.-D. Lee, J. Ko, S.-H. Kim, S. O. Kang, Chem. Commun., 2003, 1364) and has also been observed when functional groups located α- to the cage are electron-withdrawing and the compounds are exposed to polar solvents containing small amounts of H2O or MeOH (J. J. Schaeck, S. B. Kahl, Inorg. Chem., 1999, 38, 204). In the present case, the deboronation reactions occur in polar solutions such as dry DMF and thus most likely proceed by nucleophilic attack of the iodide counter-ion on the most electrophilic boron atoms in the cage, i.e. B3 (or B6) for 1,2-carborane and B2 (or B3) for 1,7-carborane.

Row | Molecule | GI50 [1] [µM] | deboronation reaction to nido-carborane zwitterion [2]
1 | C[P+](c1ccccc1)(c1ccccc1)c1ccccc1 [TPMP, triphenylmethylphosphonium, reference compound] | 12.5 | –
2 | methyldiphenyl(1,2-dicarba-closo-dodecaboranyl)phosphonium iodide [Compound 5] | – | spontaneously deboronate
3 | methyldiphenyl(1,7-dicarba-closo-dodecaboranyl)phosphonium iodide [Compound 6] | – | spontaneously deboronate
4 | methyldiphenyl(1,12-dicarba-closo-dodecaboranyl)phosphonium iodide [Compound 4] | > 40 | not observed
